Data taken from patent US20250154138A1, “Small Molecule IL-17A Modulators” (BeiGene, Ltd., priority 2022, published 2025).

Assays:
[1] = molecular target: human IL-17A / human IL-17RA (Homo sapiens (Human), UniProt Q16552); experiment: Human IL-17A biochemical assay (HTRF, blocking of IL-17A binding to IL-17RA); conditions: 0.4 nM IL-17A, 0.3 nM IL-17RA, max compound concentration 10 uM
Procedure, shortened: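 Inhibition of IL-17A binding to IL-17RA is measured by HTRF using 0.4 nM IL-17A, 0.3 nM IL-17RA and a 3 h compound pre-incubation at room temperature, pH 7.5. IC50 values come from four-parameter logistic fitting.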

[2] = system: IL-17-induced GROα secretion from HT-29 cells; experiment: GROα release assay in human colorectal adenocarcinoma epithelial cell (HT-29, ELISA); format: cell-based; conditions: Homo sapiens, HT-29, 48 h, 10 ng/mL IL-17A, highest concentration 10 μM, read-out: Cellular assay HT29 cell/CXCL1 IC50
Procedure, shortened: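 HT-29 cells were exposed 48 h at 37°C to IL-17A (final 10 ng/mL) preincubated 15 min with compound (4-fold dilutions, top 10 μM). Secreted GROα was quantified by ELISA against a standard curve, and IC50 obtained by four-parameter fitting.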

human IL-17A / human IL-17RA, sequence (Q16552 24-155): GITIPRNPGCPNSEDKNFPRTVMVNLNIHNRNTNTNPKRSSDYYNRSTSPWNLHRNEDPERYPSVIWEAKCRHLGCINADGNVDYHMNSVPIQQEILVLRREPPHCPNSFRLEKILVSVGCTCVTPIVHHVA

Structure (SMILES) | IC50 [1] [µM] | IC50 [2] [µM]
CNC(=O)C1(N2CC(C(C)COC)NC2=O)Cc2ccc(NC(=O)[C@@H](NC(=O)c3ccnn3C)C3CCCCC3)cc2C1 (stereo partly drawn) [Example 35, N-((1S)-1-cyclohexyl-2-((2-(4-(1-methoxypropan-2-yl)-2-oxoimidazolidin-1-yl)-2-(methylcarbamoyl)-2,3-dihydro-1H-inden-5-yl)amino)-2-oxoethyl)-1-methyl-1H-pyrazole-5-carboxamide] | 0.293 | 2.02
Cc1nonc1C(=O)N[C@H](C(=O)Nc1ccc2c(c1)CC(C(=O)Nc1ccccc1F)(N1C[C@@H](C(C)C)NC1=O)C2)C1CCC(F)(F)CC1 (stereo partly drawn) [Example 249, N-((1S)-1-(4,4-difluorocyclohexyl)-2-((2-((2-fluorophenyl)carbamoyl)-2-((R)-4-isopropyl-2-oxoimidazolidin-1-yl)-2,3-dihydro-1H-inden-5-yl)amino)-2-oxoethyl)-4-methyl-1,2,5-oxadiazole-3-carboxamide] | 0.226 | 0.695
CNC(=O)C1(N2C[C@@H](C(C)C)NC2=O)Cc2ccc(NC(=O)[C@@H](NC(=O)c3ccnn3C)C3CCC(F)(F)CC3)cc2C1 (stereo partly drawn) [Example 67, N-((1S)-1-(4,4-difluorocyclohexyl)-2-((2-((R)-4-isopropyl-2-oxoimidazolidin-1-yl)-2-(methylcarbamoyl)-2,3-dihydro-1H-inden-5-yl)amino)-2-oxoethyl)-1-methyl-1H-pyrazole-5-carboxamide] | 0.07 | 0.365
CNC(=O)C1(N2C[C@@H](C(C)C)NC2=O)Cc2ccc(NC(=O)[C@@H](NC(=O)c3cccc(Cl)c3)C3CCCCC3)cc2C1 (stereo partly drawn) [Example 69, 5-((S)-2-(3-chlorobenzamido)-2-cyclohexylacetamido)-2-((R)-4-isopropyl-2-oxoimidazolidin-1-yl)-N-methyl-2,3-dihydro-1H-indene-2-carboxamide] | 0.12 | 0.432
CNC(=O)C1(N2CC(C3CCC3)NC2=O)Cc2ccc(NC(=O)[C@@H](NC(=O)c3ccnn3C)C3CCCCC3)cc2C1 (stereo partly drawn) [Example 27, N-((1S)-2-((2-(4-cyclobutyl-2-oxoimidazolidin-1-yl)-2-(methylcarbamoyl)-2,3-dihydro-1H-inden-5-yl)amino)-1-cyclohexyl-2-oxoethyl)-1-methyl-1H-pyrazole-5-carboxamide] | 0.16 | 0.982
Cc1nonc1C(=O)N[C@H](C(=O)Nc1ccc2c(c1)CC(c1cn3ncccc3n1)(N1C[C@@H](C(C)C)NC1=O)C2)C(C1CC1)C1CC1 (stereo partly drawn) [Example 246, N-((2S)-1,1-dicyclopropyl-3-((2-(imidazo[1,2-b]pyridazin-2-yl)-2-((R)-4-isopropyl-2-oxoimidazolidin-1-yl)-2,3-dihydro-1H-inden-5-yl)amino)-3-oxopropan-2-yl)-4-methyl-1,2,5-oxadiazole-3-carboxamide] | 0.257 | 1.22
Cc1nonc1C(=O)N[C@H](C(=O)Nc1ccc2c(c1)CC(C(=O)Nc1cncs1)(N1CC3(CC3)CNC1=O)C2)C1CCC(F)(F)CC1 (stereo partly drawn) [Example 215, N-((1S)-1-(4,4-difluorocyclohexyl)-2-oxo-2-((2-(6-oxo-5,7-diazaspiro[2.5]octan-5-yl)-2-(thiazol-5-ylcarbamoyl)-2,3-dihydro-1H-inden-5-yl)amino)ethyl)-4-methyl-1,2,5-oxadiazole-3-carboxamide] | 0.0336 | 0.134
CNC(=O)C1(N2CC3(CC3)CNC2=O)Cc2ccc(NC(=O)C(NC(=O)c3nonc3C)C3CCC(C(F)(F)F)CC3)cc2C1 (stereo not shown) [Example 181, 4-methyl-N-(2-((2-(methylcarbamoyl)-2-(6-oxo-5,7-diazaspiro[2.5]octan-5-yl)-2,3-dihydro-1H-inden-5-yl)amino)-2-oxo-1-(4-(trifluoromethyl)cyclohexyl)ethyl)-1,2,5-oxadiazole-3-carboxamide] | 0.193 | 0.154
CNC(=O)C1(N2CC3(CC3)CNC2=O)Cc2ccc(NC(=O)[C@@H](NC(=O)c3ccc(C#N)n3C3CC3)C3CCCCC3)cc2C1 (stereo partly drawn) [Example 157, 5-cyano-N-((1S)-1-cyclohexyl-2-((2-(methylcarbamoyl)-2-(6-oxo-5,7-diazaspiro[2.5]octan-5-yl)-2,3-dihydro-1H-inden-5-yl)amino)-2-oxoethyl)-1-cyclopropyl-1H-pyrrole-2-carboxamide] | 0.037 | 0.398
CCC1(C)CNC(=O)N(C2(C(=O)NC)Cc3ccc(NC(=O)[C@@H](NC(=O)c4ccnn4C)C4CCCCC4)cc3C2)C1 (stereo partly drawn) [Example 105, N-((1S)-1-cyclohexyl-2-((2-(5-ethyl-5-methyl-2-oxotetrahydropyrimidin-1(2H)-yl)-2-(methylcarbamoyl)-2,3-dihydro-1H-inden-5-yl)amino)-2-oxoethyl)-1-methyl-1H-pyrazole-5-carboxamide] | 0.015 | 0.0555
Cc1nonc1C(=O)N[C@H](C(=O)Nc1ccc2c(c1)CC(C(=O)Nc1ccccc1F)(N1C[C@@H](C(C)C)NC1=O)C2)C(C1CC1)C1CC1 (stereo partly drawn) [Example 262, N-((2S)-1,1-dicyclopropyl-3-((2-((2-fluorophenyl)carbamoyl)-2-((R)-4-isopropyl-2-oxoimidazolidin-1-yl)-2,3-dihydro-1H-inden-5-yl)amino)-3-oxopropan-2-yl)-4-methyl-1,2,5-oxadiazole-3-carboxamide] | 0.0994 | 0.447
Cc1nonc1C(=O)N[C@H](C(=O)Nc1ccc2c(c1)CC(C(C)C)(N1CC(C(F)(F)F)NC1=O)C2)C(C1CC1)C1CC1 (stereo partly drawn) [Example 212, N-((2S)-1,1-dicyclopropyl-3-((2-isopropyl-2-(2-oxo-4-(trifluoromethyl)imidazolidin-1-yl)-2,3-dihydro-1H-inden-5-yl)amino)-3-oxopropan-2-yl)-4-methyl-1,2,5-oxadiazole-3-carboxamide] | 0.687 | 1.03
CNC(=O)C1(N2CC3(CC3)CNC2=O)Cc2ccc(NC(=O)[C@@H](NC(=O)c3ccnn3C)C(C3CC3)C3CC3)cc2C1 (stereo partly drawn) [Example 114, N-((2S)-1,1-dicyclopropyl-3-((2-(methylcarbamoyl)-2-(6-oxo-5,7-diazaspiro[2.5]octan-5-yl)-2,3-dihydro-1H-inden-5-yl)amino)-3-oxopropan-2-yl)-1-methyl-1H-pyrazole-5-carboxamide] | 0.0739 | 0.0572
Cc1nonc1C(=O)N[C@H](C(=O)Nc1ccc2c(c1)CC(C(=O)NC1CCCC1)(N1C[C@@H](C(C)C)NC1=O)C2)C(C1CC1)C1CC1 (stereo partly drawn) [Example 282, N-((2S)-1-((2-(cyclopentylcarbamoyl)-2-((R)-4-isopropyl-2-oxoimidazolidin-1-yl)-2,3-dihydro-1H-inden-5-yl)amino)-3,3-dicyclopropyl-1-oxopropan-2-yl)-4-methyl-1,2,5-oxadiazole-3-carboxamide] | 0.0337 | 0.0953
CNC(=O)C1(N2C[C@@H](C3CC3)NC2=O)Cc2ccc(NC(=O)[C@@H](NC(=O)c3ccnn3C)C3CCCCC3)cc2C1 (stereo partly drawn) [Example 41, N-((1S)-1-cyclohexyl-2-((2-((R)-4-cyclopropyl-2-oxoimidazolidin-1-yl)-2-(methylcarbamoyl)-2,3-dihydro-1H-inden-5-yl)amino)-2-oxoethyl)-1-methyl-1H-pyrazole-5-carboxamide] | 0.1 | 0.495
CNC(=O)C1(N2C[C@@H](C(C)C)NC2=O)Cc2ccc(NC(=O)[C@@H](NC(=O)c3nonc3C)C(C3CC3)C3CC3)cc2C1 (stereo partly drawn) [Example 248, N-((2S)-1,1-dicyclopropyl-3-((2-((R)-4-isopropyl-2-oxoimidazolidin-1-yl)-2-(methylcarbamoyl)-2,3-dihydro-1H-inden-5-yl)amino)-3-oxopropan-2-yl)-4-methyl-1,2,5-oxadiazole-3-carboxamide] | 0.127 | 0.427
Cc1nonc1C(=O)N[C@H](C(=O)Nc1ccc2c(c1)OC(CN1C[C@@H](C(C)C)NC1=O)C2)C(C1CC1)C1CC1 (stereo partly drawn) [Example 271, N-((2S)-1,1-dicyclopropyl-3-((2-(((R)-4-isopropyl-2-oxoimidazolidin-1-yl)methyl)-2,3-dihydrobenzofuran-6-yl)amino)-3-oxopropan-2-yl)-4-methyl-1,2,5-oxadiazole-3-carboxamide] | 0.268 | 1.39
CNC(=O)C1(N2CC(CC3CC3)NC2=O)Cc2ccc(NC(=O)[C@@H](NC(=O)c3ccnn3C)C3CCCCC3)cc2C1 (stereo partly drawn) [Example 65, N-((1S)-1-cyclohexyl-2-((2-(4-(cyclopropylmethyl)-2-oxoimidazolidin-1-yl)-2-(methylcarbamoyl)-2,3-dihydro-1H-inden-5-yl)amino)-2-oxoethyl)-1-methyl-1H-pyrazole-5-carboxamide] | 0.713 | 2.03
Cc1nonc1C(=O)N[C@H](C(=O)Nc1ccc2c(c1)CC(C(O)C(F)(F)F)(N1CC(C(F)(F)F)NC1=O)C2)C(C1CC1)C1CC1 (stereo partly drawn) [Example 270, N-((2S)-1,1-dicyclopropyl-3-oxo-3-((2-(2-oxo-4-(trifluoromethyl)imidazolidin-1-yl)-2-(2,2,2-trifluoro-1-hydroxyethyl)-2,3-dihydro-1H-inden-5-yl)amino)propan-2-yl)-4-methyl-1,2,5-oxadiazole-3-carboxamide] | 0.2 | 0.35
Cc1nonc1C(=O)N[C@H](C(=O)Nc1ccc2c(c1)CC(C(=O)NCc1cccnn1)(N1CC3(CC3)CNC1=O)C2)C1CCC(F)(F)CC1 (stereo partly drawn) [Example 228, N-((1S)-1-(4,4-difluorocyclohexyl)-2-oxo-2-((2-(6-oxo-5,7-diazaspiro[2.5]octan-5-yl)-2-((pyridazin-3-ylmethyl)carbamoyl)-2,3-dihydro-1H-inden-5-yl)amino)ethyl)-4-methyl-1,2,5-oxadiazole-3-carboxamide] | 0.0159 | 0.0491
